Results from patent US20250114345A1, “COMPOUNDS AND COMPOSITIONS AS CBP/P300 DEGRADERS AND USES THEREOF” (Oncopia Therapeutics, Inc. d/b/a/ SK Life Science Labs, priority 2023, published 2025).

What was measured:
p300 = biological target: T1, p300 (Homo sapiens, UniProt Q09472); assay: P300 degradation, HiBit technology in A549 P300 HiBit cells (2 h); type: cell-based; details: 2 hrs post treatment; for Dmax: A549, A549 P300 HiBit cells; for DC50: A549 P300 HiBit cells
T1 construct: host or cells: A549 P300 HiBit cells
In short: (§1)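 A549 cells carrying HiBit-tagged p300 or CBP, seeded overnight at 37 °C/5% CO2, then treated with serial compound dilutions from 10 mM DMSO stocks. Incubation was 2 h for p300 and 24 h for CBP, followed by HiBit lytic detection reagent for 10 min at room temperature. Luminescence read gave degradation potency and Dmax.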

CBP = biological target: T2, CBP (Homo sapiens, UniProt Q92793); assay: CBP degradation, HiBit technology in A549 CBP HiBit cells (24 h); type: cell-based; details: 24 hrs post treatment
T2 construct: host or cells: A549 CBP HiBit cells
In short: as §1

T1 sequence (Q09472 whole entry): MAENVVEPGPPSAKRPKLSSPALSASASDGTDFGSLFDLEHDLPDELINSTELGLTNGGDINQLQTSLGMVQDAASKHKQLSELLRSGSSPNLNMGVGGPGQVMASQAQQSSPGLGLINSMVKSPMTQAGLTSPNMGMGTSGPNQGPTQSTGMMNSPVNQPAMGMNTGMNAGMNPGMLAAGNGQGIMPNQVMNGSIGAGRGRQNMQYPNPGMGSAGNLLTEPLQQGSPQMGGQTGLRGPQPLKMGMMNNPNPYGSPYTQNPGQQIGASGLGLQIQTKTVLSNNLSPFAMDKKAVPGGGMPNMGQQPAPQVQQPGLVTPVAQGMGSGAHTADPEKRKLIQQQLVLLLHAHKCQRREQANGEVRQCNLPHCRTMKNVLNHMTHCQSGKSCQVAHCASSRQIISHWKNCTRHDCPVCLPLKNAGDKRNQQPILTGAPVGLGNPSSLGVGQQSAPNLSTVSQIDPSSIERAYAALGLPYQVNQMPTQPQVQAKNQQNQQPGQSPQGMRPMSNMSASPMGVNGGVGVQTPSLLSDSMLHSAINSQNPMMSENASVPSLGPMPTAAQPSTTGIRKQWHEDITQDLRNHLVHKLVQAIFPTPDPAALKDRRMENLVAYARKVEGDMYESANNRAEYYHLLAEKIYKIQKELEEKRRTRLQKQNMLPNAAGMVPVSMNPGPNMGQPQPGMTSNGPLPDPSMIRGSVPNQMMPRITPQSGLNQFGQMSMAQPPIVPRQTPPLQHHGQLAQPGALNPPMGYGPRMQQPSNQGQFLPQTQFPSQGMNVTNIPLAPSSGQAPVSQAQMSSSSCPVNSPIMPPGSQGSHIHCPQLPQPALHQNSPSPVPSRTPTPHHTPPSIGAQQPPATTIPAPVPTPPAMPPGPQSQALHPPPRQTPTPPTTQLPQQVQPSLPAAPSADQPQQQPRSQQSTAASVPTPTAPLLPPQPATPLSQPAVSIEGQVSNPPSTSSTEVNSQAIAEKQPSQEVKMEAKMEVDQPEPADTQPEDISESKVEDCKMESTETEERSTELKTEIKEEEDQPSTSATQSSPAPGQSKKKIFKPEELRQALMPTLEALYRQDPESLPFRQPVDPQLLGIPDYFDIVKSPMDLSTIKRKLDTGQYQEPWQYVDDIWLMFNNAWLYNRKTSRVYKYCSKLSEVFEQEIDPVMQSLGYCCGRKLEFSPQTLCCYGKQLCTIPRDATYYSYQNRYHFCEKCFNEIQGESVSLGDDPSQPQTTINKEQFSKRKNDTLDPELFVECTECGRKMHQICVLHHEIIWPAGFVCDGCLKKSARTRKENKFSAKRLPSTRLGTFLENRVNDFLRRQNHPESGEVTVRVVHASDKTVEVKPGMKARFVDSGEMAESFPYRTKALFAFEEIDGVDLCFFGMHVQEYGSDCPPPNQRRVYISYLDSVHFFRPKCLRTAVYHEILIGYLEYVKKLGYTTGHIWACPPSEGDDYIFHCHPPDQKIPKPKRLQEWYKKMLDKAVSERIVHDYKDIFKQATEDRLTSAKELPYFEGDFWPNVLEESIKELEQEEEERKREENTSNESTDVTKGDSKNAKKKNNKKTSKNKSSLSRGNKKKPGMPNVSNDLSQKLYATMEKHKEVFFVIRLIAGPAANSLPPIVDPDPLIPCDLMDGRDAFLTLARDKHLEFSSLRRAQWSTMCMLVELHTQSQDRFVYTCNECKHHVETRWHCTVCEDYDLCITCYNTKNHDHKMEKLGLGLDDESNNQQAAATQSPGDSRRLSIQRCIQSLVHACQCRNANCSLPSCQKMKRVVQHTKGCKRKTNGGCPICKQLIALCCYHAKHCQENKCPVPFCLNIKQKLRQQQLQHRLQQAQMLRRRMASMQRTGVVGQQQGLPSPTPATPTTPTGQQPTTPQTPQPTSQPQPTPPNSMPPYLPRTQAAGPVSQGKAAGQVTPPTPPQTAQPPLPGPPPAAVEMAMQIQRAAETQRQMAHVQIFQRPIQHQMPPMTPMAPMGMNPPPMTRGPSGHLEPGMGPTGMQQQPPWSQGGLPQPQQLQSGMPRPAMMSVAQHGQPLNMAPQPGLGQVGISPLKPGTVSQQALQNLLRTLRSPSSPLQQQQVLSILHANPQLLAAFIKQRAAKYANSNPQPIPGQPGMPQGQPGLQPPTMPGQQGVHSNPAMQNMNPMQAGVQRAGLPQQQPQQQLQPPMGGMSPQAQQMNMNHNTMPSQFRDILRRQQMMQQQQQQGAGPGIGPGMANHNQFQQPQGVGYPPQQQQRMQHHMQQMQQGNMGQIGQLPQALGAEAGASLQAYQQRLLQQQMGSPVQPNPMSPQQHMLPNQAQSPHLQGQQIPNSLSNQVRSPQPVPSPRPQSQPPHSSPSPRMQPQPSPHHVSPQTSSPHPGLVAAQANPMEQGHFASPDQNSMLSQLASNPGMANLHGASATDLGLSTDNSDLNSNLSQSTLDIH
T2 sequence (Q92793 whole entry): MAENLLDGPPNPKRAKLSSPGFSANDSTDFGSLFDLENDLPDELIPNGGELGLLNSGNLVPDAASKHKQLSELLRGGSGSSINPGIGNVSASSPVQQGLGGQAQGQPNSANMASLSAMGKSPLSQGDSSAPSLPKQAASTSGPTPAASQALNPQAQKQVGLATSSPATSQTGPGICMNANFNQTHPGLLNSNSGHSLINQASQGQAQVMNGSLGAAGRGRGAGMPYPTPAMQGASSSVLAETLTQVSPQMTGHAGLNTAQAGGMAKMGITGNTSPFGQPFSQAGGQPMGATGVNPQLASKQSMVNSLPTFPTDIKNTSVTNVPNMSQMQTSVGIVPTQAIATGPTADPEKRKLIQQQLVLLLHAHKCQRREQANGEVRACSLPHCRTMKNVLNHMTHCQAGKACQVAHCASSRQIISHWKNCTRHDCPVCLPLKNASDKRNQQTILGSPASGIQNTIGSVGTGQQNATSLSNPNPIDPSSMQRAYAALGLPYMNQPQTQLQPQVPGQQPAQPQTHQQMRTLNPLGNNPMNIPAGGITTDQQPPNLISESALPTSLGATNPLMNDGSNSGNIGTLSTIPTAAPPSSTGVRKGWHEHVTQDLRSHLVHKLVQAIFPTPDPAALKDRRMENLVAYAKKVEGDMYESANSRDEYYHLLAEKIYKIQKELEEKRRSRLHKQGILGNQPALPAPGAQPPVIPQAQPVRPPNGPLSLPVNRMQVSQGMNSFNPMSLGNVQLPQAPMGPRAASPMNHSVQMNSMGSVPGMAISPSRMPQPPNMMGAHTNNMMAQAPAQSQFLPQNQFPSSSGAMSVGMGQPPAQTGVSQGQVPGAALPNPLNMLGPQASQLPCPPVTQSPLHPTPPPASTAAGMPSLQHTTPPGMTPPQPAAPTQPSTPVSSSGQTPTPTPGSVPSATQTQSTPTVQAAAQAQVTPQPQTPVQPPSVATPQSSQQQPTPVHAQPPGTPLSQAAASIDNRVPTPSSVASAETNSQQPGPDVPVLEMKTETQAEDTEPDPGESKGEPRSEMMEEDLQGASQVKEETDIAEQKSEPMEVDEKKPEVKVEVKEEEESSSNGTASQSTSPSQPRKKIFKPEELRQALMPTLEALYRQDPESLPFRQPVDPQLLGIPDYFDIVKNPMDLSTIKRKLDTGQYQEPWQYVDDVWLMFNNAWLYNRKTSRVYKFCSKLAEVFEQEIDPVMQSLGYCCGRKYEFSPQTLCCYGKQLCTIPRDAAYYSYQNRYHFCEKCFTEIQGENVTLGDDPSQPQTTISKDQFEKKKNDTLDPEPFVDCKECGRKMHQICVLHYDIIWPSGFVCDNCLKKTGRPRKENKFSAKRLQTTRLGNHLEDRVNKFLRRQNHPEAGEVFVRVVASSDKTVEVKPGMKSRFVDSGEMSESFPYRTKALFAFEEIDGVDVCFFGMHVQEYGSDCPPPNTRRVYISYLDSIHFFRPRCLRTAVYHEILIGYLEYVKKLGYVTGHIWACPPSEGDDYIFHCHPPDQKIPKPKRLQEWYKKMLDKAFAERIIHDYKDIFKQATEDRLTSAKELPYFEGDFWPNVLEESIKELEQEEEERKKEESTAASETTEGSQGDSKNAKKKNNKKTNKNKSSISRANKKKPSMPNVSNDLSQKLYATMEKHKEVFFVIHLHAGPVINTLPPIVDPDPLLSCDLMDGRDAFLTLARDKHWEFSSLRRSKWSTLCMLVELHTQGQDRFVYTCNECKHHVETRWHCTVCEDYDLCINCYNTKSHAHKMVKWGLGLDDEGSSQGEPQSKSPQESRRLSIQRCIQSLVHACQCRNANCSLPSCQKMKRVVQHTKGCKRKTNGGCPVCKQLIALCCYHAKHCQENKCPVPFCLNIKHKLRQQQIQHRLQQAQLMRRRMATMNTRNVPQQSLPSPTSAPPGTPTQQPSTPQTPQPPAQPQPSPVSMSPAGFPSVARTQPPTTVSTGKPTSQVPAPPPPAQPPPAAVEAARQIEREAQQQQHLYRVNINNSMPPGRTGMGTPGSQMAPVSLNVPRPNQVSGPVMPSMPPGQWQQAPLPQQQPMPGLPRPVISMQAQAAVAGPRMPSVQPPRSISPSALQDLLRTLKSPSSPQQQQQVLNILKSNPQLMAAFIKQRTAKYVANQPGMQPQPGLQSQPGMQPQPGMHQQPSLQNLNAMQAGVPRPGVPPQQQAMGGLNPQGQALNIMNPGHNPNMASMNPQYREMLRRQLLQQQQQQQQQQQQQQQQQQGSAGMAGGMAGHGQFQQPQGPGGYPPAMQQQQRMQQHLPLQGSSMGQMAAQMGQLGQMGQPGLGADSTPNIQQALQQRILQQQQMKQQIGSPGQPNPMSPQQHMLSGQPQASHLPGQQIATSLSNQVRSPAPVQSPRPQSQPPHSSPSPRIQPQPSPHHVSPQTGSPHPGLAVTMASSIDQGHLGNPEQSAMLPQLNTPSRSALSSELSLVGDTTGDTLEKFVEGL

**Q.** For `CC(C)c1cc(-c2cccc3cc(-c4ccc(C(=O)NCC#Cc5cnc6c(c5)c(C5CCC(=O)NC5=O)cn6C)nc4)ncc23)cc2c1n(C)c(=O)n2C` (stereo not shown) [Example A202, N-(3-(3-(2,6-dioxo-piperidin-3-yl)-1-methyl-1H-pyrrolo [2,3-b]pyridin-5-yl)prop-2-yn-1-yl)-5-(8-(7-isopropyl-1,3-dimethyl-2-oxo-2,3-dihydro-1H-benzo[d]imidazol-5-yl)isoquinolin-3-yl)picolinamide], which Dmax (p300) is on record?
**A.** 60 to 79%

**Q.** What about the DC50 (p300) of the same compound?
**A.** 10 to 99 nM

**Q.** And the DC50 (CBP)?
**A.** > 1000 nM

**Q.** And the Dmax (CBP)?
**A.** < 20%

**Q.** Which results are given for `Cc1cc(-c2ncc3c(n2)OCCN3c2ccc3c(c2)n(C)c(=O)n3C)cnc1C(=O)NCC#Cc1cc2c(C3CCC(=O)NC3=O)ccc(F)c2o1` (stereo not shown) [Example A203, 5-(5-(1,3-dimethyl-2-oxo-2,3-dihydro-1H-benzo[d]imidazol-5-yl)-6,7-dihydro-5H-pyrimido[4,5-b][1,4]oxazin-2-yl)-N-(3-(4-(2,6-dioxopiperidin-3-yl)-7-fluoro-benzofuran-2-yl)prop-2-yn-1-yl)-3-methylpicolinamide]?
**A.** Dmax (p300): 60 to 79%; DC50 (p300): 10 to 99 nM; DC50 (CBP): > 1000 nM; Dmax (CBP): < 20%

**Q.** `CC(C)c1cc(-c2cccc3cc(-c4ccc(C(=O)NCC#Cc5ccc6[nH]nc(C7CCC(=O)NC7=O)c6c5)nc4)ncc23)cc2c1n(C)c(=O)n2C` (stereo not shown) [Example A204, N-(3-(3-(2,6-dioxo-piperidin-3-yl)-1H-indazol-5-yl)prop-2-yn-1-yl)-5-(8-(7-isopropyl-1,3-dimethyl-2-oxo-2,3-dihydro-1H-benzo [d]imidazol-5-yl)isoquinolin-3-yl)picolinamide] was tested. Which Dmax (p300) did it give?
**A.** > 80%

**Q.** What about the DC50 (p300) of the same compound?
**A.** 1 to 9.9 nM

**Q.** And the DC50 (CBP)?
**A.** 1 to 9.9 nM

**Q.** And the Dmax (CBP)?
**A.** 60 to 79%

**Q.** Which Dmax (p300) does the source give for `COc1nc(-c2cnc(C(=O)NCC#Cc3cc4c(C5CCC(=O)NC5=O)cccc4o3)c(C)c2)ncc1Nc1cc(C2CCOCC2)c2c(c1)n(C)c(=O)n2C` (stereo not shown) [Example A207, 5-(5-((1,3-dimethyl-2-oxo-7-(tetrahydro-2H-pyran-4-yl)-2,3-dihydro-1H-benzo[d]imidazol-5-yl)amino)-4-methoxypyrimidin-2-yl)-N-(3-(4-(2,6-dioxopiperidin-3-yl)benzofuran-2-yl)prop-2-yn-1-yl)-3-methylpicolinamide] here?
**A.** > 80%

**Q.** And the DC50 (p300)?
**A.** < 1 nM

**Q.** And the DC50 (CBP)?
**A.** 100 to 999 nM

**Q.** And the Dmax (CBP)?
**A.** < 20%

**Q.** Which results are given for `CC(C)c1cc(-c2cccc3cc(-c4ccc(C(=O)NCC#Cc5cc6c(C7CCC(=O)NC7=O)nccc6s5)nc4)ncc23)cc2c1n(C)c(=O)n2C` (stereo not shown) [Example A208, N-(3-(4-(2,6-dioxo-piperidin-3-yl)thieno[3,2-c]pyridin-2-yl)prop-2-yn-1-yl)-5-(8-(7-isopropyl-1,3-dimethyl-2-oxo-2,3-dihydro-1H-benzo[d]imidazol-5-yl)isoquinolin-3-yl)picolinamide]?
**A.** Dmax (p300): > 80%; DC50 (p300): 1 to 9.9 nM; DC50 (CBP): 10 to 99 nM; Dmax (CBP): 60 to 79%

**Q.** For `Cn1c(=O)n(C)c2c(N3CC4CC(C3)O4)nc(-c3cccc4cc(-c5ccc(C(=O)NCC#Cc6cc7c(C8CCC(=O)NC8=O)cccc7o6)nc5)ncc34)cc21` (stereo not shown) [Example A210, 5-(8-(4-(6-oxa-3-azabicyclo[3.1.1]heptan-3-yl)-1,3-dimethyl-2-oxo-2,3-dihydro-1H-imidazo[4,5-c]pyridin-6-yl)isoquinolin-3-yl)-N-(3-(4-(2,6-dioxopiperidin-3-yl)benzofuran-2-yl)prop-2-yn-1-yl)picolinamide], which Dmax (p300) is on record?
**A.** > 80%

**Q.** And the DC50 (p300)?
**A.** < 1 nM

**Q.** What about the DC50 (CBP) of the same compound?
**A.** > 1000 nM

**Q.** What about the Dmax (CBP) of the same compound?
**A.** < 20%

**Q.** Which Dmax (p300) does the source give for `CC(C)c1cc(N(C)c2cnc(-c3ccc(C(=O)NCC#Cc4ccc5cnn(C6CCC(=O)NC6=O)c5c4)nc3)nc2)cc2c1n(C)c(=O)n2C` (stereo not shown) [Example A211, N-(3-(1-(2,6-dioxo-piperidin-3-yl)-1H-indazol-6-yl)prop-2-yn-1-yl)-5-(5-((7-isopropyl-1,3-dimethyl-2-oxo-2,3-dihydro-1H-benzo [d]imidazol-5-yl)(methyl)amino)pyrimidin-2-yl)picolinamide] here?
**A.** > 80%

**Q.** And the DC50 (p300)?
**A.** 1 to 9.9 nM

**Q.** And the DC50 (CBP)?
**A.** > 1000 nM

**Q.** And the Dmax (CBP)?
**A.** < 20%
